What was measured:
Tlp11-LBD L264A = test: MST of Tlp11-LBD mutant L264A; assay type: binding, C. jejuni ATCC 33560; conditions: max ligand 2.5 mM
Description: (§1) The His-tag dye (MO-L018 RED-tris-NTA, NanoTemper, Germany) was adjusted to a final concentration of 25 nM and used to label the purified protein with a His-tag. The compound was diluted to a series of concentrations in phosphate-buffered saline ([Duan et al., 2023]) with 0.05% Tween 20 (PBS-T) buffer and mixed in a ratio of 1:1 with protein. The mixtures were loaded into capillaries (Monolith™ Series capillaries, NanoTemper) by means of capillary action. Thermophoresis was measured using a Monolith™ NT.115 (NanoTemper) instrument, with 40% excitation and 40% MST power configuration. The time-traces of changes in fluorescence, which reflected the thermophoretic movement of labeled protein affected by different concentrations of compound were recorded, and the dose–response curves were fitted with the ‘temperature jump and thermophoresis’ mode. Data analysis was performed using MO. Affinity Analysis version 2.3 (NanoTemper) and Prism version 8.0.2 (GraphPad Software, United States).
In order to confirm the contribution of L264, N268, I276, Y291, V318, and T320 to the binding to methyl pyruvate, we generated Tlp11-LBD proteins with an alanine point mutation at individual residues, to obtain the mutant proteins L264A, N268A, I276A, Y291A, V318A, and T320A, and then analyzed the binding affinities of methyl pyruvate to these mutants using MST. […]

[1] = target: Tlp11-LBD homologue (WP_115552006.1, residues 31-329) (Helicobacter ganmani, UniProt A0A3D8IAJ9); test: MST of Tlp11-LBD homologue; assay type: binding; conditions: H. ganmani LBD
Tlp11-LBD homologue (WP_115552006.1, residues 31-329), sequence (A0A3D8IAJ9 entry or part of it): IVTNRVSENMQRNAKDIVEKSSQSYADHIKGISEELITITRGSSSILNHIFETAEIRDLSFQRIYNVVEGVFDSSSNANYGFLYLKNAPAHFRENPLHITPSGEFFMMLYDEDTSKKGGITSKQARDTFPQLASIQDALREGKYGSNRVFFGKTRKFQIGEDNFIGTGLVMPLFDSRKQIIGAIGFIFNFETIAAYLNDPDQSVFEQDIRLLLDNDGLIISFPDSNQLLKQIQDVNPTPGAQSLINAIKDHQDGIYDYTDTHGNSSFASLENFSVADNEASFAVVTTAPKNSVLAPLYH
Description: as §1
(§2) To evaluate whether these potential Tlp11-LBD homologues could bind to methyl pyruvate, we conducted a structural analysis of the LBDs of six chemoreceptors from C. coli, H. equorum, H. himalayensis, H. mesocricetorum, H. ganmani, and C. upsaliensis using Alphafold 2. […]

[2] = target: Tlp11-LBD homologue (WP_115570384.1, residues 34-332) (Helicobacter equorum, UniProt A0A3D8ITS8); test: MST of Tlp11-LBD homologue; assay type: binding
Tlp11-LBD homologue (WP_115570384.1, residues 34-332), sequence (A0A3D8ITS8 entry or part of it): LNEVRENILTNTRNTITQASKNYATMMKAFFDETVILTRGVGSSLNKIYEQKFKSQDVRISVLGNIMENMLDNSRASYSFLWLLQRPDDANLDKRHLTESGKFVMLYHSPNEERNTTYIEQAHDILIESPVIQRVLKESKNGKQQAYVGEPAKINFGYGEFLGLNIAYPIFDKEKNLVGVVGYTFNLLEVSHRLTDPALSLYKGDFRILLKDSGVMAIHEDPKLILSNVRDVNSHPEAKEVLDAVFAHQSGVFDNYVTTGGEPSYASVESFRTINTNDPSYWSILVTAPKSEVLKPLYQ
Description: as §1, §2

[3] = target: Tlp11-LBD homologue (WP_199770133.1, residues 31-330); test: MST of Tlp11-LBD homologue; assay type: binding, Helicobacter mesocricetorum; conditions: H. mesocricetorum LBD
Description: as §1, §2

[4] = test system: Tlp11-LBD (residues 32–332 of Tlp11); test: Thermal shift assay (TSA) of Tlp11-LBD; assay type: binding, C. jejuni ATCC 33560
Description: TSA measurements were performed using a quantitative Real-Time PCR System (LightCycler® 480; Roche, United States), to monitor the Tm of the LBD proteins. The compounds listed in Supplementary Table S2 were used as ligand candidates for the high-throughput screening. Each 25 μL mixture for the standard assay contained 20 μM protein, 1–2 mM compound in Buffer C, and SYPRO™ Orange dye (Life Technologies, United States), at 5× concentration. Samples were heated from 26°C to 85°C, with a ramp rate of 1.2°C min^−1, to denature the protein. Protein unfolding curves were recorded by detecting the changes in fluorescence. The Tm values were calculated using first-derivative values (dF/dT) from the raw data.
Fluorescence-based TSA, which has been widely used to discover direct-binding molecules of proteins with high efficiency ([Fernández et al., 2018]), was used to identify the ligand specificity of the C. jejuni chemoreceptor Tlp11. The Tlp11-LBD protein (residues 32–332 of Tlp11) from the strain C. jejuni ATCC 33560 was expressed and purified from E. coli. Hydrophobic reactive dyes were added to the purified protein sample, and the protein was heated to record the change in fluorescence intensity as the temperature increased during the denaturation process of the protein (see Materials and Methods). The melting temperature (Tm) of the target protein was obtained and represented as the midpoint of the protein unfolding transition. Most ligands stabilize the protein during binding, leading to an increase in Tm. Using TSA, we screened a compound library composed of 131 molecules (Supplementary Table S2) that commonly act as microbial carbon and nitrogen sources or metabolites in the human GI tract. Among the compounds in the library, methyl pyruvate elicited the most significant increase in Tm. In the absence of the ligand, the Tm of Tlp11-LBD was 38.3°C, while in the presence of 1 mM methyl pyruvate, the Tm increased by 1.1°C compared to buffer (Figure 1A).

Structure (SMILES): COC(=O)C(C)=O [methyl pyruvate, Methyl pyruvate]
- Kd (binding curve fit) (Tlp11-LBD L264A): unable to obtain fitted Kd values
- Kd [1]: 1600 ± 200 µM
- Kd [2]: 340 ± 43 µM
- Kd [3]: 1200 ± 400 µM
- Tm increase of Tlp11-LBD compared to buffer (ΔTm) ([4]; 1 mM compound, 20 μM protein): 1.1 °C
- ΔTm of Tlp11-LBD ([4]; 3 mM compound): 1.3 °C
- ΔTm of Tlp11-LBD ([4]; 10 mM compound): 2.8 °C
